Data: PMC5945843, “Direct neurotransmitter activation of voltage-gated potassium channels” (Nature Communications, 2018)
Where “and” joins values, the source holds several entries; their conditions need not be identical. Equal entries are not always repeated. Entries after “also recorded” stand apart in the source; their conditions may differ. Where two headings read alike, the source gives them in different places.

Assays:
[1] = target: heteromeric KCNQ2/3 channels (Homo sapiens, UniProt O43525+O43526); test: TEVC in Xenopus oocytes; type: cell-based; conditions: for effect of compound alone on KCNQ2/3 current: 100 µM; for EC50: at −60 mV
Text: cRNA transcripts encoding human KCNQ1, KCNQ2, KCNQ3, KCNQ4, KCNQ5, KCNA1, or KCNE1 were generated by in vitro transcription using the T7 polymerase mMessage mMachine kit (Thermo Fisher Scientific), after vector linearization, from complementary DNA (cDNA) sub-cloned into plasmids incorporating Xenopus laevis β-globin 5′ and 3′ untranslated regions flanking the coding region to enhance translation and cRNA stability. cRNA was quantified by spectrophotometry. […] Defolliculated stage V and VI Xenopus laevis oocytes (Ecocyte Bioscience, Austin, TX) were injected with Kv channel α subunit cRNAs (5–10 ng).
Oocytes were placed in a small-volume oocyte bath (Warner) and viewed with a dissection microscope. Chemicals were sourced from Sigma. Bath solution was (in mM): 96 NaCl, 4 KCl, 1 MgCl2, 1 CaCl2, 10 HEPES (pH 7.6). […] Valeric acid was stored as a 5 mM stock in Ringer’s solution at 4 °C and diluted to working concentrations each experimental day. β-hydroxybutyric acid was stored at 4 °C as a 480 mM stock in 100% ethanol and diluted to working concentrations each experimental day. All compounds were introduced to the recording bath via gravity perfusion at a constant flow of 1 ml per min for 3 min prior to recording. Pipettes were of 1–2 MΩ resistance when filled with 3 M KCl. Currents were recorded in response to pulses between −80 mV and +40 mV at 20 mV intervals, or a single pulse to +40 mV, from a holding potential of −80 mV, to yield current-voltage relationships, current magnitude, and for quantifying activation rate. Deactivation was recorded at −80 mV after a single activating pulse to +40 mV, from a holding potential of −80 mV. […] TEVC data analysis was performed with Clampfit (Molecular Devices) and Graphpad Prism software (GraphPad, San Diego, CA, USA); values are stated as mean ± SEM. Normalized tail currents were plotted versus prepulse voltage and fitted with a single Boltzmann function:1 g=(A1-A2)/1+expV1/2-V∕VS+A2, where g is the normalized tail conductance, A1 is the initial value at −∞, A2 is the final value at +∞, V1/2 is the half-maximal voltage of activation, and VS the slope factor. Activation and deactivation kinetics were fitted with single exponential functions.

[2] = tested on: native M-current in PC12 cells; test: Whole-cell patch clamp of NGF-differentiated PC12 cells; type: cell-based, rat
Procedure: CHO cells (ATCC) were seeded on poly-L-lysine-treated glass coverslips in 24-well plates and transfected the next day using 0.5 µg each of mouse KCNQ2 and KCNQ3 cDNA in a CMV vector per well in normal media (DMEM with 10% FBS and 1% penicillin/streptomycin). The transfection reagent used was TransIT-LT1 (Mirus Bio LLC, Madison, WI, USA) and cells were patched 48–72 h post transfection. […] Media was replenished every 3 days and cultures were split once a week. […] Cell culture plastic ware and reagents were purchased from VWR and Fisher Scientific unless otherwise stated.
For both CHO cells and PC12 cells, currents were recorded in whole-cell mode at room temperature (22–25 °C) with 3–6 MΩ borosilicate glass electrodes backfilled with solution containing (in mM): 90 K acetate, 20 KCl, 40 HEPES, 3 MgCl2, 1 CaCl2, 3 EGTA-KOH, 2 MgATP; pH 7.2.
The pClamp8 (Molecular Devices) software package was used for data acquisition and Clampfit was used for analysis, along with Graphpad Prism 7.0 (Graphpad).

[3] = tested on: native M-current in mouse DRG neurons; test: Perforated patch-clamp of dorsal root ganglion neurons; type: cell-based; conditions: XE991 10 µM in combination with GABA 100 µM
Procedure: Adult male mice were purchased from Jackson Labs and then housed and used according to a protocol approved by the Institutional Animal Care and Use Committee of University of California, Irvine, and consistent with recommendations in the NIH Guide for the Care and Use of Laboratory Animals (8th edition, 2011). […]. DRG neurons were then cultured on poly-L-lysine and laminin-coated plastic coverslips in RPMI 1640 with 10% horse serum and 1% penicillin/streptomycin at 37 °C for 1–4 days before electrophysiological recordings were performed using perforated patch clamp. Amphotericin B (VWR, Radnor, PA) was dissolved in DMSO at 5 mg/ml (stock solution), then diluted to 150–200 µg/ml in intracellular solution and sonicated with a probe sonicator on ice for 5 s, kept at room temperature in the dark, and replaced every hour with a fresh solution from the stock. The working amphotericin solution was backfilled into borosilicate glass electrodes (3–5 MΩ) previously tip-filled to ~0.5 mm with intracellular solution lacking amphotericin B, immediately prior to sealing onto individual neurons. After whole-cell configuration was achieved and capacitance stabilized, whole-cell recordings were performed essentially as described in the prior paragraph, with the following differences: neurons were held at −20 mV to inactivate other channels before the test pulses; offline leak subtraction was performed.

KCNQ3* = tested on: KCNQ3*; parameters: method as in PMID 26333338; conditions: read-out: EC50 (sensitivity previously reported); cited from earlier work
[4] = tested on: canonical GABAA receptors; parameters: method as in PMID 17717222; conditions: up to 5 mM BHB; cited from earlier work
GABA receptors = tested on: GABA receptors; parameters: method as in PMID 25779225; conditions: cited from earlier work
KCNQ1 = KCNQ1 (Homo sapiens, UniProt P51787); test: 3H-GABA radioligand binding in Xenopus oocytes; conditions: extracellularly applied, 100 nM
KCNQ4 = KCNQ4 (Homo sapiens, UniProt P56696); test: 3H-GABA radioligand binding in Xenopus oocytes; conditions: extracellularly applied, 100 nM
KCNQ5 = KCNQ5 (Homo sapiens, UniProt Q9NR82); test: 3H-GABA radioligand binding in Xenopus oocytes; conditions: extracellularly applied, 100 nM
[5] = 10 µM XE991 + 100 µM picrotoxin + 10 µM CGP55845, recorded after the GABA condition
[6] = 100 µM compound with 10 µM GABA
[7] = Ctrl with 2 µg/ml Pertussis toxin, no GABA

Sequence of heteromeric KCNQ2/3 channels (O43526 whole entry): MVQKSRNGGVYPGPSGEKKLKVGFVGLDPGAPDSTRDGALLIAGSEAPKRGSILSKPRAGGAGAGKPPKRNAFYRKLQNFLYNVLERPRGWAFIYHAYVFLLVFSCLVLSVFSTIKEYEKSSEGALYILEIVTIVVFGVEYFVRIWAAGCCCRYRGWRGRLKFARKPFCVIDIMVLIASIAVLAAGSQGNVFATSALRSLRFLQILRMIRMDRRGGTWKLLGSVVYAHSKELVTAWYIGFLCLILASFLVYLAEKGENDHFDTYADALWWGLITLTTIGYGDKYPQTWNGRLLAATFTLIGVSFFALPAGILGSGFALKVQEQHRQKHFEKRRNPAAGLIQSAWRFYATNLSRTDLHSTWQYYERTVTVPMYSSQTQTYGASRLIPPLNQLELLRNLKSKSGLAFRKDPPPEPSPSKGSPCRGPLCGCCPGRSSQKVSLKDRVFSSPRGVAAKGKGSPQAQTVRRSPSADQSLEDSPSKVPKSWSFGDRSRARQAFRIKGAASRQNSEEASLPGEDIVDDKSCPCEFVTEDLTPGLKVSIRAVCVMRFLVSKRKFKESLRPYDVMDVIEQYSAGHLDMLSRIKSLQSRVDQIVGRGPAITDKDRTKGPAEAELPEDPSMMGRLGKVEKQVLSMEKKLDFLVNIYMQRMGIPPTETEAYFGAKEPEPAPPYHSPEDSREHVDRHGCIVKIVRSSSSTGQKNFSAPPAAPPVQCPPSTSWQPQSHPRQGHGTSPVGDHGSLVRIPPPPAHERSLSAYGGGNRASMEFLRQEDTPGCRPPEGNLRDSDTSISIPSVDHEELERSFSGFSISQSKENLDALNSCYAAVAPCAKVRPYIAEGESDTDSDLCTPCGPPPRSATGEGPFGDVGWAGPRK
Sequence of heteromeric KCNQ2/3 channels (O43525 whole entry): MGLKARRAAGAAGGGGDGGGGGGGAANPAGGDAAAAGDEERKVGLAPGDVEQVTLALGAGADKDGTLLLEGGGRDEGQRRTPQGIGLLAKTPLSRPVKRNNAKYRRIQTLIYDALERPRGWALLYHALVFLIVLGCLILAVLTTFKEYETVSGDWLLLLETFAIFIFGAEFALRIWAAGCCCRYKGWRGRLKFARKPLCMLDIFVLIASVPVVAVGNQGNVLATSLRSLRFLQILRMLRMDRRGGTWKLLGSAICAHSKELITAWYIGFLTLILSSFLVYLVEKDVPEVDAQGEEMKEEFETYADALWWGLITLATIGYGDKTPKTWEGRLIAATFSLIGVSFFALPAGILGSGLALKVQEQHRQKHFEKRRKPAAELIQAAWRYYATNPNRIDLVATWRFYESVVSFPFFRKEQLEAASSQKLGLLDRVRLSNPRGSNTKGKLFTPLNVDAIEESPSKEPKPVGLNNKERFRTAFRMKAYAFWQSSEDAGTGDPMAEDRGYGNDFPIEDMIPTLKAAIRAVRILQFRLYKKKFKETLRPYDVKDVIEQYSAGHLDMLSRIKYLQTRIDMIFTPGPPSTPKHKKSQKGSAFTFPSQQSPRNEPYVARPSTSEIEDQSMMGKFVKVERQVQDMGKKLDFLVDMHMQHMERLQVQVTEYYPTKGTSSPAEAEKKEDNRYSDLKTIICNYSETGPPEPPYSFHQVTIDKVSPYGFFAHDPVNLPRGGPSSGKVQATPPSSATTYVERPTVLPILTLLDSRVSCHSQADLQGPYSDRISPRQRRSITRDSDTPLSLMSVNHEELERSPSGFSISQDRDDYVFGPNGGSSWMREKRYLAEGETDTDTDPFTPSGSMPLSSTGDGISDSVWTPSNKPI

Compound: CCCCC(=O)O [valeric acid, reference compound]
- Slope ([1]; 500 µM Valeric acid, Ctrl 9.1 ± 0.5): 8.5 ± 0.6 mV
- Normalized tail current V0.5 ([1]; 500 µM Valeric acid, Ctrl -44.2 ± 0.6): -45.1 ± 0.6 mV
- Non-normalized tail current V0.5 ([1]; 500 µM Valeric acid, Ctrl -44.5 ± 5.4): -45.6 ± 4.9 mV
- Slope ([1]; 500 mM Valeric acid, Ctrl 9.1 ± 0.5): 8.5 ± 0.6 mV
- Normalized tail current V0.5 ([1]; 500 mM Valeric acid, Ctrl -44.2 ± 0.6): -45.1 ± 0.6 mV
- Non-normalized tail current V0.5 ([1]; 500 mM Valeric acid, Ctrl -44.5 ± 5.4): -45.9 ± 4.9 mV
- activity on KCNQ2/3 ([1]; up to 5 mM): inactive; also recorded: no effects

Compound: picrotoxin
- Slope ([2]; 100 µM picrotoxin + 10 µM CGP55845, Ctrl (extracellular solution only) 20.3 ± 4.5): 17.4 ± 3.0 mV
- Normalized tail current V0.5 ([2]; 100 µM picrotoxin + 10 µM CGP55845, Ctrl (extracellular solution only) -9.2 ± 4.9): -7.1 ± 7.6 mV

Compound: O=C1c2ccccc2C(Cc2ccncc2)(Cc2ccncc2)c2ccccc21 [XE991]
- effect on GABA-augmented KCNQ2/3 current ([1]; XE991 50 µM): readily inhibited
- Normalized tail current V0.5 [2, 5]: -4.9 ± 4.3 mV
- Slope [2, 5]: 18.4 ± 2.2 mV
- effect on GABA-dependent shift of tail currents ([2]; XE991 10 µM): removed the GABA-dependent negative-shift
- inhibition of deactivating current at −60 mV [3]: > 50%

Compound: CC(=O)OCC[N+](C)(C)C [ACh, acetylcholine]
- Slope [1]: 4.8 ± 2.7 mV and 3.8 ± 6.5 mV and 5.1 ± 2.5 mV and 5.6 ± 2.7 mV and 5.1 ± 1.9 mV
- concentration giving maximal effect [1]: ≥ 1 µM
- effect on KCNQ2/3 activity via endogenous mAChRs [1]: inhibited

Compound: Cc1cc(C)c(NC(=O)C2CC3CCC2C3)c(C)c1 (stereo not drawn) [ML-213]
- EC50 (KCNQ3*): 3.6 µM

Compound: NCCc1ccc(O)c(O)c1 [dopamine]
- effect of compound alone on KCNQ2/3 current [1]: no effect
- Slope ([1]; 100 µM Dopamine, Ctrl 8.4 ± 1.5): 7.2 ± 0.6 mV
- Normalized tail current V0.5 ([1]; 100 µM Dopamine, Ctrl -40.8 ± 1.4): -41.9 ± 0.6 mV
- Non-normalized tail current V0.5 ([1]; 100 µM Dopamine, Ctrl -41.6 ± 5.3): -41.8 ± 3.6 mV

Compound: CC(O)CC(=O)O (stereo not drawn) [BHB, β-hydroxybutyric acid]
- Slope ([1]; 1 µM β-Hydrox, Ctrl 6.2 ± 0.8): 5.9 ± 0.4 mV
- Normalized tail current V0.5 ([1]; 1 µM β-Hydrox, Ctrl -36.1 ± 1.8): -46.1 ± 0.6 mV
- Non-normalized tail current V0.5 ([1]; 1 µM β-Hydrox, Ctrl -36.4 ± 8.7): -43.9 ± 8.2 mV
- Slope ([1]; 10 µM β-Hydrox, Ctrl 6.2 ± 0.8): 5.9 ± 0.4 mV
- Normalized tail current V0.5 ([1]; 10 µM β-Hydrox, Ctrl -36.1 ± 1.8): -48.1 ± 0.4 mV
- Non-normalized tail current V0.5 ([1]; 10 µM β-Hydrox, Ctrl -36.4 ± 8.7): -45.5 ± 7.9 mV
- Slope ([1]; 100 µM β-Hydrox, Ctrl 6.2 ± 0.8): 5.9 ± 0.3 mV
- Normalized tail current V0.5 ([1]; 100 µM β-Hydrox, Ctrl -36.1 ± 1.8): -50.2 ± 0.3 mV
- Non-normalized tail current V0.5 ([1]; 100 µM β-Hydrox, Ctrl -36.4 ± 8.7): -46.0 ± 7.9 mV
- Slope ([1]; 1 mM β-Hydrox, Ctrl 6.2 ± 0.8): 5.7 ± 0.6 mV
- Normalized tail current V0.5 ([1]; 1 mM β-Hydrox, Ctrl -36.1 ± 1.8): -46.5 ± 0.9 mV
- Non-normalized tail current V0.5 ([1]; 1 mM β-Hydrox, Ctrl -36.4 ± 8.7): -46.0 ± 7.4 mV
- Slope ([1]; 4 mM β-Hydrox, Ctrl 6.2 ± 0.8): 4.9 ± 0.6 mV
- Normalized tail current V0.5 ([1]; 4 mM β-Hydrox, Ctrl -36.1 ± 1.8): -44.9 ± 0.8 mV
- Non-normalized tail current V0.5 ([1]; 4 mM β-Hydrox, Ctrl -36.4 ± 8.7): -44.7 ± 7.1 mV
- EC50 [1]: 950 ± 130 nM
- BHB sensitivity [4]: BHB-insensitive

Compound: NCC(CS(=O)(=O)O)c1ccc(Cl)cc1 (stereo not drawn) [saclofen, reference compound]
- effect on GABA activation of KCNQ2/3 [1]: nor did it diminish GABA activation of KCNQ2/3
- effect of compound alone on KCNQ2/3 current [1]: neither altered KCNQ2/3 currents alone
- Slope ([1]; 100 µM Saclofen, Ctrl 5.6 ± 1.1): 5.5 ± 0.8 mV
- Non-normalized tail current V0.5 ([1]; 100 µM Saclofen, Ctrl -41.1 ± 6.7): -42.8 ± 6.6 mV
- Normalized tail current V0.5 ([1]; 100 µM Saclofen, Ctrl -42.3 ± 0.8): -42.6 ± 0.8 mV

Compound: CCOC(=O)Nc1ccc(NCc2ccc(F)cc2)cc1N [retigabine]
- EC50 (KCNQ3*): 11.6 µM
- action on GABA receptors (GABA receptors): weak activator

Compound: NCC(O)CC(=O)O (stereo not drawn) [GABOB, γ-amino-β-hydroxybutyric acid]
- agonist character compared to BHB and GABA [1]: lower efficacy partial agonist
- effect on retigabine activation of KCNQ2/3 [1]: reduces the efficacy
- Slope ([1]; 0.01 µM GABOB, Ctrl 10.3 ± 1.3): 11.1 ± 1.8 mV
- Non-normalized tail current V0.5 ([1]; 0.01 µM GABOB, Ctrl -43.8 ± 3.9): -42.7 ± 5.0 mV
- Normalized tail current V0.5 ([1]; 0.01 µM GABOB, Ctrl -44.9 ± 1.5): -42.8 ± 2.0 mV
- Slope ([1]; 0.1 µM GABOB, Ctrl 10.3 ± 1.3): 10.6 ± 1.6 mV
- Non-normalized tail current V0.5 ([1]; 0.1 µM GABOB, Ctrl -43.8 ± 3.9): -45.8 ± 5.1 mV
- Normalized tail current V0.5 ([1]; 0.1 µM GABOB, Ctrl -44.9 ± 1.5): -46.6 ± 1.9 mV
- Slope ([1]; 1 µM GABOB, Ctrl 10.3 ± 1.3): 10.1 ± 1.2 mV
- Non-normalized tail current V0.5 ([1]; 1 µM GABOB, Ctrl -43.8 ± 3.9): -46.4 ± 4.7 mV
- Normalized tail current V0.5 ([1]; 1 µM GABOB, Ctrl -44.9 ± 1.5): -47.1 ± 1.4 mV
- Slope ([1]; 10 µM GABOB, Ctrl 10.3 ± 1.3): 9.6 ± 0.9 mV
- Non-normalized tail current V0.5 ([1]; 10 µM GABOB, Ctrl -43.8 ± 3.9): -46.8 ± 4.5 mV
- Normalized tail current V0.5 ([1]; 10 µM GABOB, Ctrl -44.9 ± 1.5): -48.1 ± 1.2 mV
- Slope ([1]; 100 µM GABOB, Ctrl 10.3 ± 1.3): 9.3 ± 0.8 mV
- Non-normalized tail current V0.5 ([1]; 100 µM GABOB, Ctrl -43.8 ± 3.9): -46.3 ± 4.2 mV
- Normalized tail current V0.5 ([1]; 100 µM GABOB, Ctrl -44.9 ± 1.5): -47.8 ± 0.9 mV
- effect on GABA activation of KCNQ2/3 [1, 6]: diminished the KCNQ2/3-activating efficacy of GABA
- Slope ([1]; 1 mM GABOB, Ctrl 10.3 ± 1.3): 9.2 ± 0.7 mV
- Non-normalized tail current V0.5 ([1]; 1 mM GABOB, Ctrl -43.8 ± 3.9): -46.7 ± 4.0 mV
- Normalized tail current V0.5 ([1]; 1 mM GABOB, Ctrl -44.9 ± 1.5): -48.0 ± 0.9 mV
- lowering of retigabine efficacy ([1]; at -60 mV): almost fourfold
- EC50 [1]: 100 ± 10 nM

Compound: [3H]C(CN)C([3H])C(=O)O (stereo not drawn) [^3H-GABA]
- 3H-GABA binding (KCNQ1): did not
- 3H-GABA binding (KCNQ4): bound
- 3H-GABA binding (KCNQ5): bound

Compound: Pertussis toxin
- Non-normalized tail current V0.5 [1, 7]: -41.9 ± 6.3 mV
- Normalized tail current V0.5 [1, 7]: -40.9 ± 1.4 mV
- Slope [1, 7]: 8.8 ± 1.4 mV

Compound: NCC(CC(=O)O)c1ccc(Cl)cc1 (stereo not drawn) [baclofen, reference compound]
- effect of compound alone on KCNQ2/3 current [1]: insensitive
- Slope ([1]; 100 µM Baclofen, Ctrl 9.3 ± 0.3): 9.2 ± 0.5 mV
- Non-normalized tail current V0.5 ([1]; 100 µM Baclofen, Ctrl -42.6 ± 2.3): -45.4 ± 2.5 mV
- Normalized tail current V0.5 ([1]; 100 µM Baclofen, Ctrl -44.2 ± 0.4): -46.4 ± 0.6 mV

Compound: C[C@H](NC[C@H](O)CP(=O)(O)Cc1ccccc1)c1ccc(Cl)c(Cl)c1 [CGP55845, reference compound]
- effect of compound alone on KCNQ2/3 current [1]: neither altered KCNQ2/3 currents alone
- Slope ([1]; 100 µM CGP, Ctrl 6.7 ± 0.3): 6.6 ± 0.7 mV
- Non-normalized tail current V0.5 ([1]; 100 µM CGP, Ctrl -44.9 ± 3.5): -45.6 ± 3.7 mV
- Normalized tail current V0.5 ([1]; 100 µM CGP, Ctrl -45.1 ± 0.3): -47.1 ± 1.1 mV
- effect on GABA activation of KCNQ2/3 [1, 6]: nor did it diminish GABA activation of KCNQ2/3
